{"source": "patent US12459922B2", "about": "(Gilead Sciences, Inc., priority 2022, dated 2025)"}
{"system": "endogenous cellular STAT1 (phosphorylated at Tyr701) in NCI-H1373 cells", "assay": "Phospho-STAT1 (Tyr701) LANCE Ultra TR-FRET Detection Assay", "type": "cell-based", "conditions": "Homo sapiens, 48 hours, phospho-STAT1 (Tyr701) induction, read-out: NH1373 pSTAT1 EC50", "units": {"EC50": "nM"}}
{"molecule": "O=c1[nH]ncc(N2CCCN2CCCn2ccc3cc(-c4ncc(C(F)(F)F)cn4)c(F)cc3c2=O)c1C(F)(F)F", "note": "[Example 154, 7-fluoro-2-[3-[2-[6-oxo-5-(trifluoromethyl)-1H-pyridazin-4-yl]pyrazolidin-1-yl]propyl]-6-[5-(trifluoromethyl)pyrimidin-2-yl]isoquinolin-1-one]", "EC50": 115}
{"system": "endogenous cellular STAT1 (phosphorylated at Tyr701) in NCI-H1373 cells", "assay": "Phospho-STAT1 (Tyr701) LANCE Ultra TR-FRET Detection Assay", "type": "cell-based", "conditions": "Homo sapiens, NCI-H1373, 48 h, phospho-STAT1 (Tyr701) induction, read-out: NH1373 pSTAT1 EC50", "units": {"EC50": "nM"}}
{"molecule": "C[C@@H](CCCn1ccc2cc(-c3ncc4c(n3)CCC4)c(F)cc2c1=O)Nc1cn[nH]c(=O)c1C(F)(F)F", "note": "[Example 94, (S)-6-(6,7-dihydro-5H-cyclopenta[d]pyrimidin-2-yl)-7-fluoro-2-(4-((6-oxo-5-(trifluoromethyl)-1,6-dihydropyridazin-4-yl)amino)pentyl)isoquinolin-1(2H)-one]", "EC50": 22.8}
{"molecule": "CC[C@@H](CCCn1ccc2cc(-c3ncc(C(F)F)c(N)n3)c(F)c(F)c2c1=O)Nc1cn[nH]c(=O)c1C(F)(F)F", "note": "[Example 356, (S)-6-(4-amino-5-(difluoromethyl)pyrimidin-2-yl)-7,8-difluoro-2-(4-((6-oxo-5-(trifluoromethyl)-1,6-dihydropyridazin-4-yl)amino)hexyl)isoquinolin-1(2H)-one]", "EC50": 4.9}
{"molecule": "C[C@@H](CCCn1ccc2cc(-c3cc(F)c(N)cn3)c(F)cc2c1=O)Nc1cn[nH]c(=O)c1C(F)(F)F", "note": "[Example 96, (S)-6-(5-amino-4-fluoropyridin-2-yl)-7-fluoro-2-(4-((6-oxo-5-(trifluoromethyl)-1,6-dihydropyridazin-4-yl)amino)pentyl)isoquinolin-1(2H)-one]", "EC50": 558}
{"molecule": "Nc1nc(-c2cc3ncn(CCC[C@H](COC(F)F)Nc4cn[nH]c(=O)c4C(F)(F)F)c(=O)c3cc2F)ncc1OC(F)F", "note": "[Example 374, (R)-7-(4-amino-5-(difluoromethoxy)pyrimidin-2-yl)-3-(5-(difluoromethoxy)-4-((6-oxo-5-(trifluoromethyl)-1,6-dihydropyridazin-4-yl)amino)pentyl)-6-fluoroquinazolin-4(3H)-one]", "EC50": 44.8}
{"molecule": "O=c1[nH]ncc(N[C@H](CCCn2ccc3cc(-c4ncc(C(F)(F)F)s4)c(F)cc3c2=O)COC(F)F)c1C(F)(F)F", "note": "[Example 396, (R)-2-(5-(difluoromethoxy)-4-((6-oxo-5-(trifluoromethyl)-1,6-dihydropyridazin-4-yl)amino)pentyl)-7-fluoro-6-(5-(trifluoromethyl)thiazol-2-yl)isoquinolin-1(2H)-one]", "EC50": 48.8}
{"molecule": "CC[C@@H](CCCn1cnc2cc(-c3ccc(C(F)F)cn3)c(F)cc2c1=O)Nc1cn[nH]c(=O)c1C(F)(F)F", "note": "[Example 338, (S)-7-(5-(difluoromethyl)pyridin-2-yl)-6-fluoro-3-(4-((6-oxo-5-(trifluoromethyl)-1,6-dihydropyridazin-4-yl)amino)hexyl)quinazolin-4(3H)-one]", "EC50": 218}
{"molecule": "Nc1nc(-c2cc3ccn(C[C@@H]4CCC[C@H](Nc5cn[nH]c(=O)c5C(F)(F)F)C4)c(=O)c3c(F)c2F)cnc1C(F)(F)F", "note": "[Example 257, 6-(6-amino-5-(trifluoromethyl)pyrazin-2-yl)-7,8-difluoro-2-(((1R,3S)-3-((6-oxo-5-(trifluoromethyl)-1,6-dihydropyridazin-4-yl)amino)cyclohexyl)methyl)isoquinolin-1(2H)-one]", "EC50": 25.1}
{"molecule": "CC[C@@H](CCCn1ccc2cc(-c3ncc(OC(F)F)c(N)n3)c(F)cc2c1=O)Nc1cn[nH]c(=O)c1C(F)(F)F", "note": "[Example 360, (S)-6-(4-amino-5-(difluoromethoxy)pyrimidin-2-yl)-7-fluoro-2-(4-((6-oxo-5-(trifluoromethyl)-1,6-dihydropyridazin-4-yl)amino)hexyl)isoquinolin-1(2H)-one]", "EC50": 12.7}
{"molecule": "Nc1nc(-c2cc3ncn(C[C@@H]4CCC[C@H](Nc5cn[nH]c(=O)c5C(F)(F)F)C4)c(=O)c3cc2F)cnc1C(F)(F)F", "note": "[Example 254, 7-(6-amino-5-(trifluoromethyl)pyrazin-2-yl)-6-fluoro-3-(((1R,3S)-3-((6-oxo-5-(trifluoromethyl)-1,6-dihydropyridazin-4-yl)amino)cyclohexyl)methyl)quinazolin-4(3H)-one]", "EC50": 31.9}
{"molecule": "[2H]C([2H])([2H])OC[C@@H](CCCn1ccc2cc(-c3ncc(C(F)F)c(N)n3)c(F)cc2c1=O)Nc1cn[nH]c(=O)c1C(F)(F)F", "note": "[Example 429, 6-[4-amino-5-(difluoromethyl)pyrimidin-2-yl]-7-fluoro-2-[(4R)-4-[[6-oxo-5-(trifluoromethyl)-1H-pyridazin-4-yl]amino]-5-(trideuteriomethoxy)pentyl]isoquinolin-1-one]", "EC50": 7.21}
{"molecule": "C[C@@H](CCCn1ccc2cc(-c3ncc(C4CC4)c(N)n3)c(F)cc2c1=O)Nc1cn[nH]c(=O)c1C(F)(F)F", "note": "[Example 107, 6-(4-amino-5-cyclopropyl-pyrimidin-2-yl)-7-fluoro-2-[(4S)-4-[[6-oxo-5-(trifluoromethyl)-1H-pyridazin-4-yl]amino]pentyl]isoquinolin-1-one]", "EC50": 2.22}
{"molecule": "Nc1cn(C[C@@H]2CCC[C@H](Nc3cn[nH]c(=O)c3C(F)(F)F)C2)c(=O)c2cc(F)c(-c3ncc(C(F)(F)F)cn3)cc12", "note": "[Example 486, 4-amino-7-fluoro-2-(((1R,3S)-3-((6-oxo-5-(trifluoromethyl)-1,6-dihydropyridazin-4-yl)amino)cyclohexyl)methyl)-6-(5-(trifluoromethyl)pyrimidin-2-yl)isoquinolin-1(2H)-one]", "EC50": 95.8}
{"molecule": "C[C@@H](CCCn1cnc2cc(-c3ncc(C(F)(F)F)c(NC4CC4)n3)c(F)cc2c1=O)Nc1cn[nH]c(=O)c1C(F)(F)F", "note": "[Example 116, 7-[4-(cyclopropylamino)-5-(trifluoromethyl)pyrimidin-2-yl]-6-fluoro-3-[(4S)-4-[[6-oxo-5-(trifluoromethyl)-1H-pyridazin-4-yl]amino]pentyl]quinazolin-4-one]", "EC50": 6.7}
{"molecule": "C[C@@H](CCCn1cnc2cc(-c3ncc(C4CC4)c(N)n3)c(F)cc2c1=O)Nc1cn[nH]c(=O)c1C(F)(F)F", "note": "[Example 65, 7-(4-amino-5-cyclopropyl-pyrimidin-2-yl)-6-fluoro-3-[(4S)-4-[[6-oxo-5-(trifluoromethyl)-1H-pyridazin-4-yl]amino]pentyl]quinazolin-4-one]", "EC50": 29.2}
{"molecule": "COc1cnc(-c2cc3ncn(CCC[C@H](C)Nc4cn[nH]c(=O)c4C(F)(F)F)c(=O)c3cc2F)nc1N1CC(O)(C(F)(F)F)C1", "note": "[Example 287, (S)-6-fluoro-7-(4-(3-hydroxy-3-(trifluoromethyl)azetidin-1-yl)-5-methoxypyrimidin-2-yl)-3-(4-((6-oxo-5-(trifluoromethyl)-1,6-dihydropyridazin-4-yl)amino)pentyl)quinazolin-4(3H)-one]", "EC50": 137}
{"molecule": "COc1cnc(-c2cc3ccn(CCC[C@H](C)Nc4cn[nH]c(=O)c4C(F)(F)F)c(=O)c3cc2F)nc1N1CC(F)(F)C1", "note": "[Example 210]", "EC50": 132}
{"molecule": "O=c1[nH]ncc(N[C@H]2CCC[C@@H](Cn3ccc4cc(-c5cnc(C(F)(F)F)cn5)c(F)cc4c3=O)C2)c1C(F)(F)F", "note": "[Example 256, 7-fluoro-2-(((1R,3S)-3-((6-oxo-5-(trifluoromethyl)-1,6-dihydropyridazin-4-yl)amino)cyclohexyl)methyl)-6-(5-(trifluoromethyl)pyrazin-2-yl)isoquinolin-1(2H)-one]", "EC50": 30.2}
{"molecule": "O=c1[nH]ncc(N[C@H](CCCn2ccc3cc(-c4cnc(N5CCOCC5)cn4)c(F)cc3c2=O)COC(F)F)c1C(F)(F)F", "note": "[Example 422, (R)-2-(5-(difluoromethoxy)-4-((6-oxo-5-(trifluoromethyl)-1,6-dihydropyridazin-4-yl)amino)pentyl)-7-fluoro-6-(5-morpholinopyrazin-2-yl)isoquinolin-1(2H)-one]", "EC50": 87.9}
{"molecule": "C[C@@H](CCCn1ccc2cc(-c3ccc(C(F)F)c(N)n3)c(F)cc2c1=O)Nc1cn[nH]c(=O)c1C(F)(F)F", "note": "[Example 224, (S)-6-(6-amino-5-(difluoromethyl)pyridin-2-yl)-7-fluoro-2-(4-((6-oxo-5-(trifluoromethyl)-1,6-dihydropyridazin-4-yl)amino)pentyl)isoquinolin-1(2H)-one]", "EC50": 6.14}
{"molecule": "Nc1nc(-c2cc3ccn(C[C@@H]4CCC[C@H](Nc5cn[nH]c(=O)c5C(F)(F)F)C4)c(=O)c3cc2F)cnc1C(F)(F)F", "note": "[Example 249, 6-(6-amino-5-(trifluoromethyl)pyrazin-2-yl)-7-fluoro-2-(((1R,3S)-3-((6-oxo-5-(trifluoromethyl)-1,6-dihydropyridazin-4-yl)amino)cyclohexyl)methyl)isoquinolin-1(2H)-one]", "EC50": 32.4}
{"molecule": "Nc1nc(-c2cc3ccn(C[C@@H]4CCC[C@H](Nc5cn[nH]c(=O)c5C(F)(F)F)C4)c(=O)c3cc2F)ccc1C(F)(F)F", "note": "[Example 251, 6-(6-amino-5-(trifluoromethyl)pyridin-2-yl)-7-fluoro-2-(((1R,3S)-3-((6-oxo-5-(trifluoromethyl)-1,6-dihydropyridazin-4-yl)amino)cyclohexyl)methyl)isoquinolin-1(2H)-one]", "EC50": 47.3}
{"molecule": "COc1cnc(-c2cc3ccn(CCC[C@H](C)Nc4cn[nH]c(=O)c4C(F)(F)F)c(=O)c3cc2F)nc1NC1(C(F)F)CC1", "note": "[Example 219, (S)-6-(4-((1-(difluoromethyl)cyclopropyl)amino)-5-methoxypyrimidin-2-yl)-7-fluoro-2-(4-((6-oxo-5-(trifluoromethyl)-1,6-dihydropyridazin-4-yl)amino)pentyl)isoquinolin-1(2H)-one]", "EC50": 430}
{"molecule": "O=c1[nH]ncc(N[C@H]2CCC[C@@H](Cn3ccc4cc(-c5cnc(C6CC6)cn5)c(F)cc4c3=O)C2)c1C(F)(F)F", "note": "[Example 270, 6-(5-cyclopropylpyrazin-2-yl)-7-fluoro-2-(((1R,3S)-3-((6-oxo-5-(trifluoromethyl)-1,6-dihydropyridazin-4-yl)amino)cyclohexyl)methyl)isoquinolin-1(2H)-one]", "EC50": 149}
{"molecule": "Nc1nc(-c2cc3ncn(C[C@@H]4CCC[C@H](Nc5cn[nH]c(=O)c5C(F)(F)F)C4)c(=O)c3cc2F)ncc1OC(F)F", "note": "[Example 265, 7-(4-amino-5-(difluoromethoxy)pyrimidin-2-yl)-6-fluoro-3-(((1R,3S)-3-((6-oxo-5-(trifluoromethyl)-1,6-dihydropyridazin-4-yl)amino)cyclohexyl)methyl)quinazolin-4(3H)-one]", "EC50": 52.3}
